Holding throughout (assay type): biochemical
One assay concerns the target T1, PC2 (Mus musculus, UniProt P21661).
T1 sequence (P21661 109-637): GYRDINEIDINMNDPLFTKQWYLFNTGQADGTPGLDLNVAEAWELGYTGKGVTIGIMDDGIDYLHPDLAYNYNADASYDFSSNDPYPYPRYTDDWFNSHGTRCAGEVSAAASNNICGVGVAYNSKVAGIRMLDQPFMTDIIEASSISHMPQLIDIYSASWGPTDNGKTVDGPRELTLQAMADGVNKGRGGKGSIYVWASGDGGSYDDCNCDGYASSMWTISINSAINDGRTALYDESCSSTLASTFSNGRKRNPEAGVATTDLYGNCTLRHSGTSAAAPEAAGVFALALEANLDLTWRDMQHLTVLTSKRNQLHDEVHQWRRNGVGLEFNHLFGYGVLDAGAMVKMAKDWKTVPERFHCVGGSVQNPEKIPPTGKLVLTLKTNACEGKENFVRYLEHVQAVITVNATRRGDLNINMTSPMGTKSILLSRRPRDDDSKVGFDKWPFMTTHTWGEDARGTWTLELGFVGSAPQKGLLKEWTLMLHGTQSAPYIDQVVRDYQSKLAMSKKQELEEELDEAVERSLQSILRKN
The assay is described as follows: PC2 enzyme assay, hydrolysis of pERTKR-MCA at pH 5.0. The arrangement: made in house. The method, then: (§1) The proprotein convertases PC1 and PC2 were prepared by ion exchange chromatography as described in G. Frenette et al., Biochim. Biophys. Acta., vol. 1334, pp. 109-115 (1997).
(§2) Enzyme Assays and Hexapeptide Library Screening. Enzyme assays for PC1 and PC2 were performed at pH 5.0 using pERTKR-MCA (Peptides International Inc., Louisville, Ky.) as described in E. Apletalina et al., J. Biol. Chem., vol. 273, pp. 26589-26595 (1998). The assay for furin was performed using the same substrate at pH 7.0 in 100 mM HEPES, 5 mM CaCl2, 0.1% Brij 35. All assays were performed at 37° C. in a 96 well fluorometer (Labsystems) at an excitation wavelength of 380 nm with emission monitored at a wavelength of 460 nm. The total volume was 50 μL. Unless otherwise stated, the final substrate concentration for all assays was 200 μM. When used in a particular experiment, the inhibitory peptides were pre-incubated with enzyme for 30 min at room temperature prior to addition of substrate. All assays were performed in duplicate or triplicate.

A further assay deals with T2, recombinant mouse furin (Mus musculus, UniProt P23188).
T2 construct: truncated N-terminally to the transmembrane domain at His^711 using PCR; myc (C, cleaved yes); hexa-His (C, cleaved yes); made in house; host or cells: DG44 CHO cells, conditioned medium
T2 sequence (P23188 108-714 limits assumed): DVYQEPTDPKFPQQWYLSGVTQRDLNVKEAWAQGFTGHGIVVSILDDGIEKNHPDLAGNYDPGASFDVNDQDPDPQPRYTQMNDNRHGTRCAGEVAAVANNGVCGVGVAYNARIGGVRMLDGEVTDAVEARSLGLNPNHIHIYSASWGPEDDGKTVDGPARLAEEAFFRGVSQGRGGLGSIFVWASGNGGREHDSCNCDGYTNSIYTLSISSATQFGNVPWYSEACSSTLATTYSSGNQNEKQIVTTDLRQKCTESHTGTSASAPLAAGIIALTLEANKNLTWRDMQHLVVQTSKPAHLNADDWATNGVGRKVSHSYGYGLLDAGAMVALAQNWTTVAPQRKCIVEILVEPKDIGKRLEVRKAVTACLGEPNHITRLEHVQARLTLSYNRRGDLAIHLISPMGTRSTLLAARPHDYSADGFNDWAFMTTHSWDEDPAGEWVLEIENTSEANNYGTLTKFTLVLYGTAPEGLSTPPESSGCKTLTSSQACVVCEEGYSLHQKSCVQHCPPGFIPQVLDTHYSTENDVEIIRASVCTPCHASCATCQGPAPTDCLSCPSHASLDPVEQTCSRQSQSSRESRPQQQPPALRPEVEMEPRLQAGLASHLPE
As to the kind of experiment: Furin enzyme assay, hydrolysis of pERTKR-MCA at pH 7.0. The settings on record: for type of inhibition of furin (Lineweaver-Burk plots): furin 30 nM, 0, 20 or 40 μM hexapeptide, polyarginines forty-fold lower.
From the text: Recombinant convertase preparation. The mouse furin clone was a kind gift from K. Nakayama (Fukuoka University School of Medicine, Fukuoka, Japan). The mouse furin cDNA was truncated N-terminally to the transmembrane domain at His^711 using PCR. This PCR product was then subcloned into pcDNA3.1 (−) myc-His (Invitrogen) at the Nhe1 and Xba1 restriction sites. Dihydrofolate-reductase-negative DG44 Chinese Hamster Ovary (CHO) cells (L. Chasin, Columbia University, New York, N.Y.) were transfected using Lipofectin (Life Technologies), and colonies were selected at 37° C. in 5% CO2 in α-MEM (lacking nucleosides) containing 10% well-dialyzed fetal bovine serum (Life Technologies). Conditioned media from colonies were screened using an enzyme assay (see below), and a high-expressing clone was selected. Overexpression of furin was achieved by increasing the methotrexate concentration from 5 nM to 50 μM in five- to ten-fold steps as described in I. Lindberg et al., Methods Neurosci., vol. 23, pp. 94-108 (1995). The amplified lines were tested for increased furin expression by enzyme assay. Once the 50 μM methotrexate level had been reached, cells were split at ratios of 1:6 twice a week. 100 mL of conditioned media (OptiMEM, Life Technologies) containing 100 μg/mL aprotinin (Miles Laboratories, Kankakee, Ill.) was collected from confluent roller bottles every 24 h. The medium was then centrifuged at low speed to remove cells, and the supernatant was stored at −80° C. until use.
Purification of furin: Conditioned medium was thawed, pooled, and diluted 1:3.5 with buffer A (20 mM HEPES, 0.1% Brij 35, 5 mM CaCl2, pH 7.4), and pumped at 40 mL/min through a Sartorius D100 anion exchange membrane. The membrane was washed with 40 mL of buffer A, followed by 40 mL of buffer A containing 50 mM NaCl, and finally by 40 mL of buffer A containing 200 mM NaCl. The fraction eluting with 200 mM NaCl was diluted 1:4 with buffer A and applied to a 1 mL Pharmacia Mono Q HR5/5 anion exchange column at a flow rate of 1 mL/min. Following a 10 mL wash with buffer A, furin was eluted by a linear increase of 0 to 500 mM NaCl in buffer A over 30 mL; and 2 mL fractions were collected. Fractions containing peak activity were pooled, and 200 μL aliquots were subjected to gel permeation chromatography using a Pharmacia Superose 12 column at a flow rate of 0.5 mL/min of buffer A containing 200 mM NaCl. Fractions were assayed for activity as described below; protein content was determined using the Bradford method. All purification steps were performed at 4° C.
as §2

Another assay deals with T3, PC1 (Mus musculus, UniProt P63239).
T3 construct: made in house
T3 sequence (P63239 111-753): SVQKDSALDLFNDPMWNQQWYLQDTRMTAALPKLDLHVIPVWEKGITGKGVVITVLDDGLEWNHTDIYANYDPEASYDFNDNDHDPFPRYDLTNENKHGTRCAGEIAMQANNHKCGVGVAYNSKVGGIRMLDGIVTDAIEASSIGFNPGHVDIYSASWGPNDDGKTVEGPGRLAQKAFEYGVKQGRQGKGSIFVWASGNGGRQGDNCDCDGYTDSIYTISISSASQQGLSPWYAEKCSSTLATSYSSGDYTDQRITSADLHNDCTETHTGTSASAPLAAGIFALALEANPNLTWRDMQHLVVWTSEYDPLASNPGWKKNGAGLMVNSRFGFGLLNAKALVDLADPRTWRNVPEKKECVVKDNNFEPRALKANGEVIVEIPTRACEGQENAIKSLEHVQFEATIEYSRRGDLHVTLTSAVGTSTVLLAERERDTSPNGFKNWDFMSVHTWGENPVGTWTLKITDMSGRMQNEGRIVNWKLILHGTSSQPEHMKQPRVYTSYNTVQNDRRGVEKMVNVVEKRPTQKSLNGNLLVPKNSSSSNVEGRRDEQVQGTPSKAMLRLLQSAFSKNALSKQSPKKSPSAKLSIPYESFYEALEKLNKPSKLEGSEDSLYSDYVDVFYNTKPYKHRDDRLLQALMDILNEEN
The assay is described as follows: biochemical. The method, then:
as §1, §2

In the next assay the target is T4, PACE4 (Rattus norvegicus, UniProt Q63415).
T4 construct: made in house; host or cells: stably transfected hEK-293 cells (gift of R. E. Mains), conditioned medium
T4 sequence (Q63415 133-937): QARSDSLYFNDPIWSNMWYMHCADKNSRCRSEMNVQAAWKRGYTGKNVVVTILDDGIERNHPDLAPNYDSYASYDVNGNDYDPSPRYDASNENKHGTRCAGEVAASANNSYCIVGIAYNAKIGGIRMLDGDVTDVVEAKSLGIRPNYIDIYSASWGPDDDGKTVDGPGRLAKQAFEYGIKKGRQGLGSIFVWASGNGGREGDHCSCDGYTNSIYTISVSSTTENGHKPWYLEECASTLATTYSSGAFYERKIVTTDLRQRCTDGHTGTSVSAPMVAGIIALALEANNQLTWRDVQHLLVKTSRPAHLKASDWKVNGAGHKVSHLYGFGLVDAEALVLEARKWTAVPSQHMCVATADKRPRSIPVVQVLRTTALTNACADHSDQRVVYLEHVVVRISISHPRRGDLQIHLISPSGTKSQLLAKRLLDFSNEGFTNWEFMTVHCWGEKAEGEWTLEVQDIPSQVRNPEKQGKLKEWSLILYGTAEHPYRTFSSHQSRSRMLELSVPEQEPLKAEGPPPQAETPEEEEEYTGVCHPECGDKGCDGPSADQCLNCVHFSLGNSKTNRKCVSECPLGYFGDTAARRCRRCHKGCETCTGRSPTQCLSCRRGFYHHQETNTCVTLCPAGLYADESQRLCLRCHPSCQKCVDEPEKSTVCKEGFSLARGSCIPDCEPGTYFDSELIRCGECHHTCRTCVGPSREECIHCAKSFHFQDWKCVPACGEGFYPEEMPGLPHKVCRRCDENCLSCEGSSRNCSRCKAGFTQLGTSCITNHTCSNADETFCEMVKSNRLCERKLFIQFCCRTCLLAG
The assay is described as follows: PACE4 enzyme assay, hydrolysis of pERTKR-MCA. The method, then:
The proprotein convertase PACE4 was partially purified from an overnight-conditioned medium of stably transfected hEK-293 human embryonic kidney cells (a generous gift of R. E. Mains, Johns Hopkins University School of Medicine, Baltimore, Md.). Briefly, 100 mL of conditioned medium (OptiMEM containing 100 μg/mL aprotinin) was loaded onto an Econo-Pac Q (Bio-Rad) column at 4 mL/min, washed with 10 mL of buffer A, and then eluted with a linear gradient of buffer A containing 500 mM NaCl over 50 mL. The active fractions were then diluted 1:4 with buffer A prior to loading onto a Mono Q column (Pharmacia) at 1 mL/min. The PACE4 was eluted with a linear gradient of buffer A containing 500 mM NaCl over 10 mL. The resulting active fractions were then pooled and stored at −80° C. until use.
as §2

Non-standard residues stand in square brackets, D forms with d. Residues, ends and D or L forms follow the SMILES beside them.

As usually defined, the Ki is a dissociation constant, usually derived from enzyme kinetics or from competition with a known ligand.

At PC2, `CC(=O)N[C@@H](CC(C)C)C(=O)N[C@@H](CC(C)C)C(=O)N[C@@H](CCCN=C(N)N)C(=O)N[C@H](C(=O)N[C@@H](CCCCN)C(=O)N[C@@H](CCCN=C(N)N)C(=O)O)C(C)C` [Ac-LLRVKR] had an inhibition constant Ki of 1.3 ± 0.6 µM. For the molecule `CC[C@@H](C)[C@@H](NC(=O)[C@@H](CCCNC(=N)N)NC(=O)[C@@H](CCCNC(=N)N)NC(=O)[C@@H](CCCNC(=N)N)NC(=O)[C@@H](Cc1c[nH]c2ccccc12)NC(C)=O)C(=O)N[C@H](CC(C)C)C(N)=O` [Ac-wrrril-NH2] (Ac-[dW][dR][dR][dR][dI][dL]-NH2), the inhibition constant (Ki) at PC2 stood at 601 ± 200 µM; at recombinant mouse furin it was 22.7 ± 4.3 µM. As to `CC[C@@H](C)[C@@H](NC(=O)[C@@H](CCCNC(=N)N)NC(=O)[C@@H](CCCNC(=N)N)NC(=O)[C@@H](CCCNC(=N)N)NC(=O)[C@@H](Cc1c[nH]c2ccccc12)NC(C)=O)C(=O)N[C@H](CCCNC(=N)N)C(N)=O` [Ac-wrrrir-NH2] (Ac-[dW][dR][dR][dR][dI][dR]-NH2), the values for the Ki on PC2 and at recombinant mouse furin were 399 ± 75 µM and 7 ± 0.9 µM, respectively. The like results for `CC(=O)N[C@H](Cc1c[nH]c2ccccc12)C(=O)N[C@H](CCCNC(=N)N)C(=O)N[C@H](CCCNC(=N)N)C(=O)N[C@H](CCCNC(=N)N)C(=O)N[C@H](CCCNC(=N)N)C(=O)N[C@H](CC(C)C)C(N)=O` [Ac-wrrrrl-NH2] (Ac-[dW][dR][dR][dR][dR][dL]-NH2) were, in that order, 203 ± 20 µM and 5.3 ± 1 µM. `CC(=O)N[C@H](Cc1c[nH]c2ccccc12)C(=O)N[C@H](CCCNC(=N)N)C(=O)N[C@H](CCCNC(=N)N)C(=O)N[C@H](CCCNC(=N)N)C(=O)N[C@H](CCCNC(=N)N)C(=O)N[C@H](CCCNC(=N)N)C(N)=O` [Ac-wrrrrr-NH2] (Ac-[dW][dR][dR][dR][dR][dR]-NH2): the inhibition constant (Ki) on PC2 worked out at 334 ± 37 µM. In addition, at recombinant mouse furin, the Ki came out at 2.4 ± 0.8 µM and the “type of inhibition of furin (Lineweaver-Burk plots)” value is on record as “strictly competitive-type inhibition”.

Turning to `N=C(N)NCCC[C@H](NC(=O)[C@H](CCCNC(=N)N)NC(=O)[C@H](CCCNC(=N)N)NC(=O)[C@H](CCCNC(=N)N)NC(=O)[C@H](CCCNC(=N)N)NC(=O)[C@H](CCCNC(=N)N)NC(=O)[C@@H](N)CCCNC(=N)N)C(=O)O` [Hepta-L-arginine], the Ki on PC1 was found to be 5.2 ± 1.2 µM; on PACE4, 0.24 ± 0.045 µM. The molecule `CC(C)C[C@H](NC(=O)[C@@H](N)CC(C)C)C(=O)N[C@@H](CCCNC(=N)N)C(=O)N[C@H](C(=O)N[C@@H](CCCCN)C(=O)N[C@@H](CCCNC(=N)N)C(N)=O)C(C)C` [LLRVKR-NH2] came in with an inhibitory constant (Ki) at PC2 of 2.3 ± 0.2 µM. Molecule `CC(C)C[C@H](NC(=O)[C@@H](N)CC(C)C)C(=O)N[C@@H](CCCNC(=N)N)C(=O)N[C@H](C(=O)N[C@@H](CCCCN)C(=O)N[C@@H](CCCNC(=N)N)C(=O)O)C(C)C` [LLRVKR] had a Ki at PC2 of 3.7 ± 0.17 µM. On recombinant mouse furin (LLRVKR compared with acetylated and amidated form), the “increase of inhibitory potency against furin on removing the terminal amide and acetyl groups” value is reported as “eight-fold”. Turning to Ac-HHKRRR-NH2 [Ac-HHKRRR-NH2], on PC2, the Ki was determined as 235 ± 16 µM. On the same count and under the same terms, to Ac-HRKRRR-NH2 [Ac-HRKRRR-NH2] belongs 309 ± 29 µM; to Ac-KHKRRR-NH2 [Ac-KHKRRR-NH2], 280 ± 29 µM; to Ac-KRKRRR-NH2 [Ac-KRKRRR-NH2], 391 ± 60 µM. Still for that read-out and setting: the same measure for Ac-MHKRRR-NH2 [Ac-MHKRRR-NH2]: 216 ± 13 µM; for Ac-MRKRRR-NH2 [Ac-MRKRRR-NH2]: 1500 µM.

In the case of Ac-RHKRRR-NH2 [Ac-RHKRRR-NH2], the inhibition constant (Ki) on PC2 amounted to 152 ± 30 µM; on recombinant mouse furin, 3.4 ± 0.6 µM. On PC2, Ac-RRKRRR-NH2 [Ac-RRKRRR-NH2] had a Ki of 461 ± 75 µM. The “type of inhibition of furin (Lineweaver-Burk plots)” value on recombinant mouse furin is on record as “strictly competitive-type inhibition”.

The record behind these values is US7569547B2, “Inhibiting furin with polybasic peptides” (Board of Supervisors of Louisiana State University and …, priority 2001, dated 2009).
